According to patent US8420144B2, “Kokumi-imparting agent, method of using, and compositions containing same” (Ajinomoto Co., Inc., priority 2005, dated 2013):

What was measured:
[1] = biological target: T1, human calcium receptor (Homo sapiens, UniProt P41180); test: Calcium receptor activation activity: Ca ion concentration-dependent Cl ionic current in Xenopus laevis oocyte expression system; assay type: cell-based
T1 construct: expressed in transfected cells; host or cells: Xenopus laevis oocytes microinjected with cRNA; gene amplified by PCR from human kidney cDNA (Clontech)
T1 sequence (P41180 20-1078): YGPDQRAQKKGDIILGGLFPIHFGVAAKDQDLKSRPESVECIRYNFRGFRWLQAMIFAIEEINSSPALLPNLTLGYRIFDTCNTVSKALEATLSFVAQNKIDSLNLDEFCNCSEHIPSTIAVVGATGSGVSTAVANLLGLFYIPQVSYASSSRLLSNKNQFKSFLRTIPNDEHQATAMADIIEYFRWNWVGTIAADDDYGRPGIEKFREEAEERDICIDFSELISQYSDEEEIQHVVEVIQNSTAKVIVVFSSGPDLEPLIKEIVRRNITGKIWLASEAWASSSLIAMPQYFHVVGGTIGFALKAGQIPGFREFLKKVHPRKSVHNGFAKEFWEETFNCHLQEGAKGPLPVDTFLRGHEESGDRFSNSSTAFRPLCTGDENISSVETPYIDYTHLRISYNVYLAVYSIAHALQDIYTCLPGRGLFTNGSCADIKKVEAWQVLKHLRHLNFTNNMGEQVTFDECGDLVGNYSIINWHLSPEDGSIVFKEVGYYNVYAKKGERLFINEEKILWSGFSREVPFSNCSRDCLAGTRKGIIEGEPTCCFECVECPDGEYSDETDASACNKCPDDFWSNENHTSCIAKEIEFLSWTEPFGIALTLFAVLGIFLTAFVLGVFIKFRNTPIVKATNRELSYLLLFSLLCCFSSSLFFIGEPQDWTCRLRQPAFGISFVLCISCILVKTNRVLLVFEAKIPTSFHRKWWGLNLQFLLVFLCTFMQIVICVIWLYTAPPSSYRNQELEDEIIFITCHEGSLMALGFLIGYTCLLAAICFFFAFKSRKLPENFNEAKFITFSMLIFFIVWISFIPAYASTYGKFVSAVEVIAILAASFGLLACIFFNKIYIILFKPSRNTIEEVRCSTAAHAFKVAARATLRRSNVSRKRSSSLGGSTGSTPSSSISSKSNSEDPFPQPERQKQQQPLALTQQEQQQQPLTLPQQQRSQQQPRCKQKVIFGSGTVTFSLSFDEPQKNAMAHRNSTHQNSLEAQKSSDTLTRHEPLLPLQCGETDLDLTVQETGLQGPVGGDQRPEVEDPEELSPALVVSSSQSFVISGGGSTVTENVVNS
Procedure: To evaluate calcium receptor activation activity, a Ca ion concentration-dependent Cl ionic current measuring method using a Xenopus laevis oocyte expression system was used. If each activator is added to Xenopus laevis oocytes expressing the calcium receptor, intracellular Ca ions increase. Then, the Ca ion concentration-dependent Cl channel opens, and the intracellular current value changes as an ionic current. By measuring the change in this intracellular current value, the presence or absence of calcium receptor activation activity can be determined.
Specifically, the abdomen of Xenopus laevis was opened, and an egg batch was taken out and treated with a 1% collagenase solution at 20° C. for 2 hours to obtain individual oocytes. Into the oocytes, 50 nl of 1 μg/μl receptor cRNA or 50 nl of sterilized water per oocyte was introduced by using a micro glass capillary, and the oocytes were cultured at 18° C. for 2 or 3 days. For the culture, a solution obtained by adding 2 mM pyruvic acid, 10 U/ml of penicillin, and 10 μg/ml of streptomycin to the solution in Example 2 was used. After the culture, a test solution was added to the oocytes containing either the cRNA or sterilized water. Electrophysiological measurement was performed by using an amplifier, Geneclamp500 (Axon), and recording software, AxoScope 9.0 (Axon). The oocytes were voltage-clamped at −70 mV by the double electrode voltage clamp method, and the intracellular current was measured via the Ca ion concentration-dependent Cl ion channel. The maximum value of the intracellular current was considered as the response current value.
Calcium receptor activation activity of L-amino acids was evaluated by using the method described in Example 13. That is, oocytes containing either cRNA of the calcium receptor or sterilized water were prepared, and voltage-clamped at −70 mV by the double electrode voltage clamp method. To the voltage-clamped oocytes, alanine (10 mM), arginine (10 mM), asparagine (10 mM), aspartic acid (10 mM), cysteine (10 mM), glutamine (10 mM), glutamic acid (10 mM), glycine (10 mM), histidine (10 mM), isoleucine (10 mM), leucine (10 mM), lysine (10 mM), methionine (10 mM), phenylalanine (10 mM), proline (10 mM), serine (10 mM), threonine (10 mM), tryptophan (10 mM), tyrosine (10 mM), valine (10 mM), ornithine (10 mM), taurine (10 mM), or hydroxyproline (10 mM) was added, and Ca ion concentration-dependent Cl response current was measured. […] As for the aforementioned amino acids, the activation activity was reported in Proc. Natl. Acad. Sci. USA, 2000 Apr. 25, 97(9):4814-9.
Calcium receptor activation activity of D-cysteine was evaluated by using the method described in Example 13. That is, oocytes containing either cRNA of the calcium receptor or sterilized water were prepared, and voltage-clamped at −70 mV by the double electrode voltage clamp method. To the voltage-clamped oocytes, D-cysteine (10 mM), L-cysteine (10 mM), D-tryptophan (10 mM), or L-tryptophan (10 mM) was added, and Ca ion concentration-dependent Cl response current was measured.
Calcium receptor activation activity of peptides was evaluated by using the method described in Example 13. That is, oocytes containing either cRNA of the calcium receptor or sterilized water were prepared, and voltage-clamped at −70 mV by the double electrode voltage clamp method.
Calcium receptor activation activity of peptides was evaluated in the same manner as that of Example 17. Each of the peptides shown in Table 2 was added to voltage-clamped oocytes at 1000 μM, 300 μM, 100 μM, 30 μM, 10 μM, 3 μM, 1 μM, 0.3 μM, and 0.1 μM, and Ca ion concentration-dependent Cl response current was measured.

[2] = Quantitative sensory evaluation test: imparting kokumi to corn soup; assay type: in vivo, human; conditions: n=12, 0 control, 3 intense, 5 extremely intense
Procedure: The intensity of the activity for imparting kokumi to corn soup of each peptide having confirmed calcium receptor activation activity was measured by a quantitative sensory evaluation test, performed as follows: to commercially available corn soup, samples of either γ-Glu-Cys-Gly (glutathione) or γ-Glu-Val-Gly were added to a concentration of 0.0001 to 1 g/dl, and the intensity of the kokumi-imparting activity was measured for each sample. The corn soup with the samples that became acidic after dissolution of the samples with respect to the corn soup without the samples was adjusted with NaOH to pH not lower or higher by 0.2 than pH of the corn soup without the samples before use. Sensory evaluation scores were used to evaluate as follows: 0 points for the control sample, 3 points for intense activity as compared to the control, and 5 points for extremely intense activity as compared to the control, and the test was performed with n=12.

| SMILES | calcium receptor activation activity (Ca ion concentration-dependent Cl response current) ([1]; 50 μM peptide, oocytes voltage-clamped at −70 mV) | Intensity of kokumi: Aftertaste ([2]; 0.01 g/dl) | Intensity of kokumi: First and middle taste ([2]; 0.01 g/dl) | Activity (lowest concentration for which current was detected) ([1]; added at 1000, 300, 100, 30, 10, 3, 1, 0.3 and 0.1 μM) | Intensity of kokumi: Aftertaste ([2]; 0.0005 g/dl) | Intensity of kokumi: First and middle taste ([2]; 0.0005 g/dl) | Intensity of kokumi: Aftertaste ([2]; 0.001 g/dl) | Intensity of kokumi: First and middle taste ([2]; 0.001 g/dl) | Intensity of kokumi: Aftertaste ([2]; 0.1 g/dl) | Intensity of kokumi: First and middle taste ([2]; 0.1 g/dl) |
| --- | --- | --- | --- | --- | --- | --- | --- | --- | --- | --- |
| N[C@@H](CCC(=O)N[C@@H](CS)C(=O)NCC(=O)O)C(=O)O [γ-Glu-Cys-Gly, reference compound] | definitive calcium receptor activation activity | 3.0 points | 3.0 points | – | – | – | – | – | – | – |
| CC(C)[C@H](NC(=O)CC[C@H](N)C(=O)O)C(=O)NCC(=O)O [γ-Glu-Val-Gly] | – | 5.0 points | 4.5 points | 0.1 µM | 3.0 points | 2.5 points | 4.0 points | 3.5 points | 5.0 points | 5.0 points |
